Where two headings read alike, the source gives them in different places.
How the values were obtained:
[1] = target: Rho-A (Homo sapiens, UniProt P61586); test: Ras GTP binding domain inhibition assay (labeled-GTP competition, cell-free); set-up: made in house
How it was run: (§1)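 Labeled-GTP competition read out as bound Cy3/Cy5-GTP fluorescence after washes, with 100 nM tracer for 45 min at RT. Before tracer, compounds at 20 μM, or a dilution series for IC50, sat 3 h at RT on the Ni-immobilized His-tagged GTPase. Sos GEF (10-30 μg/mL) was optionally present for the last hour.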

[2] = target: KRas wild type (Homo sapiens, UniProt P01116); test: as above; set-up: made in house
How it was run: as §1

[3] = target: Rac-1 (Homo sapiens, UniProt P63000); test: as above; set-up: made in house
How it was run: as §1

[4] = target: T1, KRas G12D mutant (Homo sapiens, UniProt P01116, G12D); test: as above
T1 construct: made in house
How it was run: as §1

[5] = target: T2, KRas Q61H mutant (Homo sapiens, UniProt P01116, Q61H); test: as above
T2 construct: made in house
How it was run: as §1

[6] = target: T3, KRas G12C mutant (Homo sapiens, UniProt P01116, G12C); test: as above
T3 construct: made in house
How it was run: as §1

[7] = tested on: MIA-PaCa-2 pancreatic cancer cell line (KRAS G12C); test: Cell proliferation assay (CellTiter 96 Aqueous One); type: cell-based; conditions: Homo sapiens; for IC50: MIA PaCa-2, MIA PaCa-2; for inhibition at 10 µM: MIA PaCa-2, read-out: % inh cell proliferation (10 μM) in MIA PaCa-2
How it was run: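 After overnight attachment, compounds are added (10 μM final or serial dilutions) and left 2–4 days, with viability then measured by MTS.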

[8] = with SOS, read-out: Rho-A + SOS: % inh.
[9] = without SOS, read-out: Rho-A: % inh.
[10] = with SOS, read-out: KRas wild type + SOS: % inh.
[11] = without SOS, read-out: KRas wild type: % inh.
[12] = with SOS, read-out: Rac-1 + SOS: % inh.
[13] = without SOS, read-out: Rac-1: % inh.
[14] = with SOS, read-out: KRas G12D mutant + SOS: % inh.
[15] = without SOS, read-out: KRas G12D mutant: % inh.
[16] = with SOS, read-out: KRas Q61H mutant + SOS: % inh.
[17] = without SOS, read-out: KRas Q61H mutant: % inh.
[18] = with SOS, read-out: KRas G12C mutant + SOS: % inh.
[19] = without SOS, read-out: KRas G12C mutant: % inh.

Row | Structure (SMILES) | inhibition at 20 µM [1, 8] [%] | inhibition at 20 µM [1, 9] [%] | inhibition at 20 µM [2, 10] [%] | inhibition at 20 µM [2, 11] [%] | inhibition at 20 µM [3, 12] [%] | inhibition at 20 µM [3, 13] [%] | inhibition at 20 µM [4, 14] [%] | inhibition at 20 µM [4, 15] [%] | inhibition at 20 µM [5, 16] [%] | inhibition at 20 µM [5, 17] [%] | IC50 ([5]; with SOS) [µM] | inhibition at 20 µM [6, 18] [%] | inhibition at 20 µM [6, 19] [%] | IC50 [7] [µM] | inhibition at 10 µM [7] [%]
1 | O=C(c1nc(O)c2scc(-c3ccccn3)c2n1)N1CCCC1 [Compound 19, (4-Hydroxy-7-(pyridin-2-yl)thieno[3,2-d]pyrimidin-2-yl)(pyrrolidin-1-yl)methanone] | 26 to 50 | 26 to 50 | 1 to 25 | 1 to 25 | 1 to 25 | 1 to 25 | 1 to 25 | 26 to 50 | 1 to 25 | 1 to 25 | > 10 | 1 to 25 | 1 to 25 | > 10 | 0
2 | CC(C)NC(=O)c1nc(O)c2scc(-c3ccccn3)c2n1 [Compound 20, 4-Hydroxy-N-isopropyl-7-(pyridin-2-yl)thieno[3,2-d]pyrimidine-2-carboxamide] | 26 to 50 | 26 to 50 | 1 to 25 | 51 to 75 | 26 to 50 | 26 to 50 | 26 to 50 | 26 to 50 | 26 to 50 | 26 to 50 | > 10 | 26 to 50 | 51 to 75 | > 10 | 1 to 25
3 | COCCNC(=O)c1nc(O)c2scc(-c3ccccn3)c2n1 [Compound 21, 4-Hydroxy-N-(2-methoxyethyl)-7-(pyridin-2-yl)thieno[3,2-d]pyrimidine-2-carboxamide] | 26 to 50 | 51 to 75 | 1 to 25 | 26 to 50 | 26 to 50 | 26 to 50 | 26 to 50 | 26 to 50 | 26 to 50 | 26 to 50 | > 10 | 26 to 50 | 26 to 50 | > 10 | 1 to 25
4 | O=C(c1nc(O)c2scc(-c3ccccn3)c2n1)N1CCOCC1 [Compound 22, (4-Hydroxy-7-(pyridin-2-yl)thieno[3,2-d]pyrimidin-2-yl)(morpholino)methanone] | 1 to 25 | 1 to 25 | 1 to 25 | 1 to 25 | 1 to 25 | 1 to 25 | 0 | 1 to 25 | 1 to 25 | 1 to 25 | > 10 | 0 | 1 to 25 | > 10 | 1 to 25
5 | O=C(Nc1ccccc1)c1nc(O)c2scc(-c3ccccn3)c2n1 [Compound 23, 4-Hydroxy-N-phenyl-7-(pyridin-2-yl)thieno[3,2-d]pyrimidine-2-carboxamide] | 1 to 25 | 1 to 25 | 1 to 25 | 1 to 25 | 1 to 25 | 1 to 25 | 1 to 25 | 1 to 25 | 1 to 25 | 0 | > 10 | 0 | 1 to 25 | > 10 | 0
6 | O=C(Nc1ccccn1)c1nc(O)c2scc(-c3ccccn3)c2n1 [Compound 24, 4-Hydroxy-N,7-di(pyridin-2-yl)thieno[3,2-d]pyrimidine-2-carboxamide] | 1 to 25 | 1 to 25 | 1 to 25 | 1 to 25 | 1 to 25 | 0 | 0 | 1 to 25 | 0 | 1 to 25 | > 10 | 1 to 25 | 1 to 25 | > 10 | 1 to 25
7 | Cc1sc2c(O)nc(-c3ccccn3)nc2c1-c1ccccn1 [Compound 26, 6-Methyl-2,7-di(pyridin-2-yl)thieno[3,2-d]pyrimidin-4-ol] | 76 to 100 | 76 to 100 | 51 to 75 | 76 to 100 | 76 to 100 | 76 to 100 | 76 to 100 | 76 to 100 | 76 to 100 | 76 to 100 | 5 to 10 | 76 to 100 | 76 to 100 | 5 to 10 | 51 to 75
8 | Cn1ccnc1-c1nc(O)c2scc(-c3ncccc3F)c2n1 [Compound 30, 7-(3-Fluoropyridin-2-yl)-2-(1-methyl-1H-imidazol-2-yl)thieno[3,2-d]pyrimidin-4-ol] | 76 to 100 | 76 to 100 | 76 to 100 | 76 to 100 | 51 to 75 | 51 to 75 | 51 to 75 | 51 to 75 | 76 to 100 | 51 to 75 | 1 to 4.99 | 76 to 100 | 51 to 75 | > 10 | 26 to 50

Further lines, with some results ahead:

Row | inhibition at 20 µM [1, 8] [%] | inhibition at 20 µM [1, 9] [%] | inhibition at 20 µM [2, 10] [%] | inhibition at 20 µM [2, 11] [%] | inhibition at 20 µM [3, 12] [%] | inhibition at 20 µM [3, 13] [%] | inhibition at 20 µM [4, 14] [%] | inhibition at 20 µM [4, 15] [%] | inhibition at 20 µM [5, 16] [%] | inhibition at 20 µM [5, 17] [%] | IC50 ([5]; with SOS) [µM] | inhibition at 20 µM [6, 18] [%] | inhibition at 20 µM [6, 19] [%] | IC50 [7] [µM] | Structure (SMILES) | inhibition at 10 µM [7] [%]
9 | 51 to 75 | 51 to 75 | 76 to 100 | 26 to 50 | 26 to 50 | – | 76 to 100 | 26 to 50 | 76 to 100 | 26 to 50 | 1 to 4.99 | 76 to 100 | 51 to 75 | < 1 | CO[C@@H]1CC[C@H](Nc2nc(-c3nccn3C)nc3sc(-c4ccn(C(C)C)n4)c(C)c23)C1 [Compound 31, 6-(1-Isopropyl-1H-pyrazol-3-yl)-N-((1S,3R)-3-methoxycyclopentyl)-5-methyl-2-(1-methyl-1H-imidazol-2-yl)thieno[2,3-d]pyrimidin-4-amine] | 76 to 100
10 | 51 to 75 | 51 to 75 | 76 to 100 | 76 to 100 | 26 to 50 | 26 to 50 | 76 to 100 | 26 to 50 | 76 to 100 | 51 to 75 | 1 to 4.99 | 76 to 100 | 51 to 75 | < 1 | CO[C@H]1CC[C@@H](Nc2nc(-c3nccn3C)nc3sc(-c4ccn(C(C)C)n4)c(C)c23)C1 [Compound 32, 6-(1-Isopropyl-1H-pyrazol-3-yl)-N-((1R,3S)-3-methoxycyclopentyl)-5-methyl-2-(1-methyl-1H-imidazol-2-yl)thieno[2,3-d]pyrimidin-4-amine] | 76 to 100
11 | 76 to 100 | 76 to 100 | 76 to 100 | 76 to 100 | 76 to 100 | 76 to 100 | 76 to 100 | 76 to 100 | 76 to 100 | 76 to 100 | – | 76 to 100 | 76 to 100 | 5 to 10 | COCCNc1nc(-c2nccn2C)nc2sc(-c3ccn(C(C)C)n3)c(C)c12 [Compound 35, 6-(1-Isopropyl-1H-pyrazol-3-yl)-N-(2-methoxyethyl)-5-methyl-2-(1-methyl-1H-imidazol-2-yl)thieno[2,3-d]pyrimidin-4-amine] | 76 to 100
12 | 76 to 100 | 26 to 50 | 76 to 100 | 76 to 100 | 76 to 100 | 76 to 100 | 76 to 100 | 51 to 75 | 76 to 100 | 76 to 100 | – | 76 to 100 | 76 to 100 | < 1 | COCCCNc1nc(-c2nccn2C)nc2sc(-c3ccn(C(C)C)n3)c(C)c12 [Compound 36, 6-(1-Isopropyl-1H-pyrazol-3-yl)-N-(3-methoxypropyl)-5-methyl-2-(1-methyl-1H-imidazol-2-yl)thieno[2,3-d]pyrimidin-4-amine] | 76 to 100
